Common to all, as to test: HIV-1 RT Assay
The target in assay [1] is T1, Gag-Pol polyprotein [600-1027,R876K]/[600-1155] (Human immunodeficiency virus 1, UniProt P03366, R876K).
T1 construct: 600-1027; 600-1155

Assay [2] has as its target T2, Gag-Pol polyprotein [600-1027,Y780C]/[600-1155,Y780C] (Human immunodeficiency virus 1, UniProt P03366, Y780C).
T2 construct: 600-1027; 600-1155

Assay [3] addresses T3, Gag-Pol polyprotein [600-1027,Y787L]/[600-1155,Y787L] (Human immunodeficiency virus 1, UniProt P03366, Y787L).
T3 construct: 600-1027; 600-1155

Assay [4] has as its target T4, Gag-Pol polyprotein [600-1027,G789A]/[600-1155,G789A] (Human immunodeficiency virus 1, UniProt P03366, G789A).
T4 construct: 600-1027; 600-1155

Assay [5] deals with T5, Gag-Pol polyprotein [600-1027,K702N]/[600-1155,K702N] (Human immunodeficiency virus 1, UniProt P03366, K702N).
T5 construct: 600-1027; 600-1155

Assay [6] addresses T6, Gag-Pol polyprotein [600-1027,P835L]/[600-1155,P835L] (Human immunodeficiency virus 1, UniProt P03366, P835L).
T6 construct: 600-1027; 600-1155

Assay [7] deals with T7, Gag-Pol polyprotein [600-1027,V705A]/[600-1155,V705A] (Human immunodeficiency virus 1, UniProt P03366, V705A).
T7 construct: 600-1027; 600-1155

The text below walks through data of BindingDB's records for doi:10.1021/jm9707028 (Boehringer Ingelheim Pharmaceuticals, 1998).

A value given as a limit tells only on which side of the number the result lay.

Consider `CCN1c2ncc(CCc3ccncc3)cc2C(=O)N(C)c2cccnc21` [2-ethyl-9-methyl-13-[2-(pyridin-4-yl)ethyl]-2,4,9,15-tetraazatricyclo[9.4.0.0^{3,8}]pentadeca-1(11),3,5,7,12,14-hexaen-10-one], for which the results for the IC50 in assay [1], in assay [2] and in assay [3] were 50 nM, 130 nM and > 1000 nM, respectively.
For `CCN1c2ncc(CCc3ccncc3)cc2C(=O)N(C)c2ccc(Cl)nc21` [2,8-Substituted Dipyridodiazepinone 37], the concentration for half-maximal inhibition (IC50) in assay [4] was determined as 30 nM; in assay [5] it was 120 nM; in assay [6], 110 nM; in assay [7], 550 nM.
For `CCN1c2ncc(CCc3ccccc3)cc2C(=O)N(C)c2ccc(-c3ccc[nH]3)nc21` [2-ethyl-9-methyl-13-(2-phenylethyl)-5-(1H-pyrrol-2-yl)-2,4,9,15-tetraazatricyclo[9.4.0.0^{3,8}]pentadeca-1(15),3(8),4,6,11,13-hexaen-10-one], the IC50 in assay [1] stood at 590 nM; in assay [2], 520 nM; in assay [3], 1280 nM.
As for `CCN1c2ncc(CCc3ccccc3)cc2C(=O)N(C)c2ccc(Cl)nc21` [2,8-Substituted Dipyridodiazepinone 36], the IC50 in assay [4] was found to be 120 nM; in assay [5] it was 50 nM; in assay [6], 710 nM; in assay [7] it was 840 nM.
